As a reminder, the IC50 is the concentration that gives 50% inhibition. High values mean lower potency, low ones higher potency.

One experiment addresses T1, K103NNY181C mutant reverse transcriptase (Human immunodeficiency virus type 1 group M subtype B, UniProt P04585, K690N/Y768C).
T1 construct: mutations that occur in the reverse transcriptase segment of the pol gene
The experiment in a line: Reverse transcriptase enzymatic assay (PicoGreen), K103N/Y181C mutant RT. In kind it is biochemical, HIV-1. The following applies: IC50 mut (nM), mutant (K103N/Y181C) reverse transcriptase, enzymatic assay of Example 24. In short, it runs like this:
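HIV-1 RT (2.5 nM final) pre-incubated 15 min at room temperature with inhibitor, then reacted 50 min at 37 °C with poly rC 45 nM, dG15 4.5 nM, dGTP 3.6 μM in Tris/HCl pH 7.8, 1% DMSO. Final inhibitor 10 μM to 0.508 nM; EDTA-quenched, PicoGreen fluorescence read at 485/520 nm.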
`CC(C)(C)c1ccc(-n2nnnc2SCC(=O)Nc2ccc(NC(=O)Nc3ccc(C(=O)O)cc3)cc2Cl)c(Cl)c1` [Compound 7009] came in with an IC50 of 43 nM.

Take `CC(C)(C)c1ccc(-n2nnnc2SCC(=O)Nc2ccc(NS(=O)(=O)Cc3ccccc3)cc2Cl)c(Cl)c1` [Compound 7004]: 272 nM corresponded to half-maximal inhibition (IC50).

`CC(C)(C)c1ccc(-n2nnnc2SCC(=O)Nc2ccc(NC(=O)C(C)(C)c3ccccc3)cc2Cl)c(Cl)c1` [Compound 7041] registered an IC50 of 337 nM.

As for `COc1ccccc1CC(=O)Nc1ccc(NC(=O)CSc2nnnn2-c2ccc(C(C)(C)C)cc2Cl)c(Cl)c1` [Compound 7018], the IC50 was found to be 100 nM.

In turn, `CC(C)(C)c1ccc(-n2nnnc2SCC(=O)Nc2ccc(NC(=O)Nc3ccccc3)cc2Cl)c(Cl)c1` [Compound 7002] gave an IC50 of 187 nM.

For the molecule `CC(C)CCC(=O)Nc1ccc(NC(=O)CSc2nnnn2-c2ccc(C(C)(C)C)cc2Cl)c(Cl)c1` [Compound 7024], the IC50 came to 414 nM.

As to `CC(=O)NC(C(=O)Nc1ccc(NC(=O)CSc2nnnn2-c2ccc(C(C)(C)C)cc2Cl)c(Cl)c1)c1ccccc1` (centres unmarked) [Compound 7033], the IC50 turned out to be 21.5 nM.

Molecule `CC(C)(C)c1ccc(-n2nnnc2SCC(=O)Nc2ccc(NC(=O)C3CCCCC3)cc2Cl)c(Cl)c1` [Compound 7022] gave an IC50 of 629 nM.

In the case of `CC(C)(C)c1ccc(-n2nnnc2SCC(=O)Nc2ccc(NC(=O)Cc3c[nH]c4ccccc34)cc2Cl)c(Cl)c1` [Compound 7043], the IC50 turned out to be 145 nM.

The same experiment, now with this note: IC50 mut, K103N/Y181C mutant reverse transcriptase, enzymatic assay of Example 24.
Molecule `CNC(=O)NC(C)(C)C#Cc1ccc(NC(=O)CSc2nnnn2-c2ccc(C3CC3)cc2Cl)c(Cl)c1` [Compound 4071] registered an IC50 of 8.75 nM.

`CC(C)(C#Cc1ccc(NC(=O)CSc2nnnn2-c2ccc(C(C)(C)C)cc2Cl)c(Cl)c1)OCC(=O)Nc1cnccn1` [Compound 4040] yielded an IC50 of 58 nM.

For the molecule `Cc1cc(C#CC(C)(C)C(=O)O)ccc1NC(=O)CSc1nnnn1-c1ccc(C(C)(C)C)cc1Cl` [Compound 4057], the IC50 is 96 nM.

As to `C=C(C)C#Cc1ccc(NC(=O)CSc2nnnn2-c2ccc(C3CC3)cc2Cl)c(Cl)c1` [Compound 4112], the IC50 amounted to 54 nM.

As to `CC(C)(C#Cc1ccc(NC(=O)CSc2nnnn2-c2cc(C(C)(C)C)ccc2Cl)c(Cl)c1)NC(=O)c1cc[n+]([O-])cc1` [Compound 4205], the IC50 came out at 28.5 nM.

Take `CC(C)(C)c1ccc(-n2nnnc2SCC(=O)Nc2ccc(C#CCN3CCCC3)cc2Cl)c(Cl)c1` [Compound 4012]: the IC50 came to 46 nM.

In turn, `CC(C)(C#Cc1ccc(NC(=O)CSc2nnnn2-c2cc(C(F)(F)F)ccc2Cl)c(Cl)c1F)OCCOc1ccncc1` [Compound 4166] registered a 50% inhibitory concentration (IC50) of 126 nM.

In the case of `CC(C)(C#Cc1ccc(NC(=O)CSc2nnnn2-c2cc(C3CC3)ccc2Cl)c(Cl)c1F)OCCN1CCNCC1` [Compound 4209], the IC50 was 46 nM.

For the molecule `CN1CCN(CC2(C#Cc3ccc(NC(=O)CSc4nnnn4-c4ccc(C5CC5)cc4Cl)c(Cl)c3)CC2)CC1` [Compound 4094], the IC50 was 48.5 nM.

`CC(C)(C#Cc1ccc(NC(=O)CSc2nnnn2-c2ccc(C3CC3)cc2Cl)c(Cl)c1)NCc1nccs1` [Compound 4129] registered an IC50 of 15.5 nM.

`CC(C)(C#Cc1ccc(NC(=O)CSc2nnnn2-c2cc(C(C)(C)C)ccc2Cl)c(Cl)c1)C(=O)O` [Compound 4200] gave an IC50 of 35.5 nM.

`O=C(CSc1nnnn1-c1ccc(C2CC2)cc1Cl)Nc1ccc(C#CCCN2CCCC2)cc1Cl` [Compound 4132] had an IC50 of 49.5 nM.

Consider `CN1CCC[C@H]1C(=O)NC(C)(C)C#Cc1ccc(NC(=O)CSc2nnnn2-c2ccc(C3CC3)cc2Cl)c(Cl)c1` [Compound 4110], for which the midpoint of inhibition, the IC50, lay at 11.5 nM.

`CC(C)(C#Cc1ccc(NC(=O)CSc2nnnn2-c2cc(Cl)ccc2Cl)c(Cl)c1)NC(=O)CN1CCNCC1` [Compound 4194]: half-maximal inhibition (IC50) was put at 45 nM.

In the case of `CC(C)(C#Cc1ccc(NC(=O)CSc2nnnn2-c2ccc(C3(C)CC3)cc2Cl)c(Cl)c1)C(=O)O` [Compound 4173], the IC50 was 51 nM.

The molecule `CN(C)S(=O)(=O)NC(=O)C(C)(C)C#Cc1ccc(NC(=O)CSc2nnnn2-c2ccc(C3CC3)cc2Cl)c(Cl)c1` [Compound 4185] returned an IC50 of 55.5 nM.

In turn, `CC(C)(O)C#Cc1ccc(NC(=O)CSc2nnnn2-c2cc(C#N)ccc2Cl)c(Cl)c1` [Compound 4021] came in with an IC50 of 361 nM.

As to `CC(C)(C#Cc1ccc(NC(=O)CSc2nnnn2-c2cc(C(F)(F)F)cc(C3CC3)c2Cl)c(Cl)c1F)NC(=O)CN1CCNCC1` [Compound 4236], the IC50 came to 250 nM.

On to `CC(C)(C#Cc1ccc(NC(=O)CSc2nnnn2-c2ccc(C3CC3)cc2Cl)c(Cl)c1)NC(=O)N1CCNCC1` [Compound 4228], for which 30 nM corresponded to half-maximal inhibition (IC50).

For the molecule `CC(C)(C#Cc1ccc(NC(=O)CSc2nnnn2-c2cc(C(F)(F)F)ccc2Cl)c(Cl)c1F)NC(=O)c1cc[n+]([O-])cc1` [Compound 4164], the IC50 stood at 18.5 nM.

Turning to `CC(C)(C)c1ccc(-n2nnnc2SCC(=O)Nc2ccc(C#CCCCOC(N)=O)cc2Cl)c(Cl)c1` [Compound 4061], the IC50 came to 16 nM.

Take `CC(C)(C#Cc1ccc(NC(=O)CSc2nnnn2-c2ccc(C3CC3)cc2Cl)c(Cl)c1)C(=O)NCCN1CCCC1` [Compound 4143]: the IC50 worked out at 65 nM.

Regarding `CC(C)(C#Cc1ccc(NC(=O)CSc2nnnn2-c2ccc(C(C)(C)C)cc2Cl)c(Cl)c1)OCC(=O)Nc1ccc(C(=O)O)cc1` [Compound 4045], the IC50 stood at 32 nM.

Take `CC(C)(C#Cc1ccc(NC(=O)CSc2nnnn2-c2ccc(C3CC3)cc2Cl)c(Cl)c1)NS(C)(=O)=O` [Compound 4076]: the IC50 turned out to be 17.5 nM.

`CC(C)(C#Cc1ccc(NC(=O)CSc2nnnn2-c2ccc(C3CC3)cc2Cl)c(Cl)c1)C(=O)NCc1cc[n+]([O-])cc1` [Compound 4148]: the IC50 was determined as 11 nM.

For the molecule `CC(C)(C#Cc1ccc(NC(=O)CSc2nnnn2-c2ccc(C3CC3)cc2Cl)c(Cl)c1)NCC(N)=O` [Compound 4231], the IC50 is 16 nM.

`CCCC#Cc1ccc(NC(=O)CSc2nnnn2-c2ccc(C(C)(C)C)cc2Cl)c(Cl)c1` [Compound 4009]: the IC50 was determined as 8.9 nM.

Staying with this experiment, now noted: IC50 mut, mutant reverse transcriptase, enzymatic assay of Example 24.
Molecule `CN(C)c1ccc(NC(=O)c2ccc(NC(=O)CSc3nnnn3-c3ccc(C(C)(C)C)cc3Cl)c(Cl)c2)cc1` [Compound 6012] yielded an IC50 of 47 nM.

The molecule `Cc1cc(NC(=O)c2ccc(NC(=O)CSc3nnnn3-c3ccc(C(C)(C)C)cc3Cl)c(Cl)c2)ccc1/C=C/C(=O)O` [Compound 6032] returned an IC50 of 20.5 nM.

`CC(C)(C)c1ccc(-n2nnnc2SCC(=O)Nc2ccc(-c3ccc(OCC(=O)O)cc3Cl)cc2Cl)c(Cl)c1` [Compound 3009] had an IC50 of 154 nM.

Regarding `COC(=O)Cc1ccc(-c2ccc(NC(=O)CSc3nnnn3-c3ccc(C)cc3Cl)c(Cl)c2)cc1` [Compound 2003], the IC50 was found to be 53 nM.

In turn, `Cc1ccc(-n2nnnc2SCC(=O)Nc2ccc(-c3nnn[nH]3)cc2Cl)c(Cl)c1` [Compound 3019] gave an IC50 of 539 nM.

`O=C(COc1ccc(NC(=O)CSc2nnnn2-c2ccc(C3CC3)cc2Cl)c(Cl)c1)NCCc1cccnc1` [Compound 5035] yielded an IC50 of 258 nM.

Molecule `CC(C)(C)c1ccc(-n2nnnc2SCC(=O)Nc2ccc(C(=O)NCc3cccnc3)cc2Cl)c(Cl)c1` [Compound 6008] returned an IC50 of 26 nM.

Regarding `C/C(=C\c1ccc(NC(=O)CSc2nnnn2-c2ccc(C3CC3)cc2Cl)c(Cl)c1)C(=O)O` [Compound 3041], the 50% inhibitory concentration (IC50) stood at 94 nM.

In turn, `Cc1cc(NC(=O)COc2ccc(NC(=O)CSc3nnnn3-c3ccc(C(C)(C)C)cc3Cl)c(Cl)c2)no1` [Compound 5001] yielded an IC50 of 71 nM.

The molecule `CN1CCN(C(=O)COc2ccc(NC(=O)CSc3nnnn3-c3ccc(C(C)(C)C)cc3Cl)c(Cl)c2)CC1` [Compound 5003] yielded an IC50 of 48 nM.

Consider `CC(C)(C)c1ccc(-n2nnnc2SCC(=O)Nc2ccc(-c3ccc(OCCN4CCC(C(=O)O)CC4)cc3)cc2Cl)c(Cl)c1` [Compound 2040], for which the IC50 was determined as 36 nM.

With `CC(C)(C)c1ccc(-n2nnnc2SCC(=O)Nc2ccc(OCC(=O)NC(CO)C(=O)O)cc2Cl)c(Cl)c1` (centres unmarked) [Compound 5018], half-maximal inhibition (IC50) required 92 nM.

In the case of `CC(C)(C)c1ccc(-n2nnnc2SCC(=O)Nc2ccc(C(=O)NCc3ccco3)cc2Cl)c(Cl)c1` [Compound 6003], the IC50 stood at 13 nM.

For `O=C(CSc1nnnn1-c1ccc(C2CC2)cc1Cl)Nc1ccc(C(=O)NS(=O)(=O)c2ccccc2)cc1Cl` [Compound 6037], the IC50 came to 111 nM.

In turn, `CN(CCc1ccncc1)C(=O)COc1ccc(NC(=O)CSc2nnnn2-c2ccc(C3CC3)cc2Cl)c(Cl)c1` [Compound 5037] displayed an IC50 of 174 nM.

`CN1CCN(NS(=O)(=O)c2ccc(NC(=O)CSc3nnnn3-c3ccc(C4CC4)cc3Cl)c(Cl)c2)CC1` [Compound 3037] showed an IC50 of 112 nM.

In the case of `O=C(O)Cc1ccc(-c2ccc(NC(=O)CSc3nnnn3-c3ccc(C4CC4)cc3Cl)c(Cl)c2)cc1` [Compound 2033], the IC50 came to 15 nM.

Molecule `Cc1ccc(-n2nnnc2SCC(=O)Nc2ccc(-c3ccc(CC(=O)O)cc3)cc2Cl)c(Cl)c1` [Compound 2004] had an IC50 of 48 nM.

`COC(=O)c1ccc(-c2ccc(NC(=O)CSc3nnnn3-c3ccc(C)cc3Cl)c(Cl)c2)cc1` [Compound 2001] registered an IC50 of 133 nM.

For the molecule `CC(C)(C#Cc1ccc(NC(=O)CSc2nnc(C(F)(F)F)n2-c2ccc(C3CC3)cc2Cl)c(Cl)c1)C(=O)O` [Compound 1017], the IC50 was 72 nM.

With `CC(C)(C)c1ccc(-n2nnnc2SCC(=O)Nc2ccc(C(=O)NC3CC3)cc2Cl)c(Cl)c1` [Compound 6002], the IC50 is 31 nM.

The molecule `O=C(COc1ccc(NC(=O)CSc2nnnn2-c2ccc(C3CC3)cc2Cl)c(Cl)c1)NCCc1ccncc1` [Compound 5036] registered an IC50 of 271 nM.

For the molecule `O=C(O)Cc1ccc(-c2ccc(NC(=O)CSc3nnnn3-c3ccc4ncsc4c3Cl)c(Cl)c2)cc1` [Compound 2035], half-maximal inhibition (IC50) required 269 nM.

The record behind these values is patent publication US7517998B2, “Non nucleoside reverse transcriptase inhibitors” (priority 2004, dated 2009).
